# According to PMC3388044, “Probing of Exosites Leads to Novel Inhibitor Scaffolds of HCV NS3/4A Proteinase” (PLoS ONE, 2012):
# System: HCV replicon (NS3/4A R155K)
# Experiment: not given
# Settings: fold change vs WT, mutant HCV replicon; cited from earlier work
row,SMILES,R155K FC (replicon)
1,"CC(C)(C)NC(=O)N[C@H](C(=O)N1C[C@H]2[C@@H]([C@H]1C(=O)NC(CC1CCC1)C(=O)C(N)=O)C2(C)C)C(C)(C)C (stereo partly shown) [Boceprevir, boceprevir]",4.7

# Same assay, conditions: mutant HCV replicon with luciferase readout; cited from earlier work
row,SMILES,IC50 [µM]
1,"CC(C)(C)NC(=O)N[C@H](C(=O)N1C[C@H]2[C@@H]([C@H]1C(=O)NC(CC1CCC1)C(=O)C(N)=O)C2(C)C)C(C)(C)C (stereo partly shown) [Boceprevir, boceprevir]",0.743

# System: HCV replicon (NS3/4A V36M)
# Experiment: not given
# Settings: fold change vs WT, mutant HCV replicon; cited from earlier work
row,SMILES,V36M FC (replicon)
1,"CC(C)(C)NC(=O)N[C@H](C(=O)N1C[C@H]2[C@@H]([C@H]1C(=O)NC(CC1CCC1)C(=O)C(N)=O)C2(C)C)C(C)(C)C (stereo partly shown) [Boceprevir, boceprevir]",1.8

# Same assay, conditions: mutant HCV replicon with luciferase readout; cited from earlier work
row,SMILES,IC50 [µM]
1,"CC(C)(C)NC(=O)N[C@H](C(=O)N1C[C@H]2[C@@H]([C@H]1C(=O)NC(CC1CCC1)C(=O)C(N)=O)C2(C)C)C(C)(C)C (stereo partly shown) [Boceprevir, boceprevir]",0.217

# System: HCV replicon (NS3/4A D168A)
# Experiment: not given
# Settings: fold change vs WT, mutant HCV replicon; cited from earlier work
row,SMILES,D168A FC (replicon)
1,"CC(C)(C)NC(=O)N[C@H](C(=O)N1C[C@H]2[C@@H]([C@H]1C(=O)NC(CC1CCC1)C(=O)C(N)=O)C2(C)C)C(C)(C)C (stereo partly shown) [Boceprevir, boceprevir]",0.7

# Same assay, conditions: mutant HCV replicon with luciferase readout; cited from earlier work
row,SMILES,IC50 [µM]
1,"CC(C)(C)NC(=O)N[C@H](C(=O)N1C[C@H]2[C@@H]([C@H]1C(=O)NC(CC1CCC1)C(=O)C(N)=O)C2(C)C)C(C)(C)C (stereo partly shown) [Boceprevir, boceprevir]",0.1

# System: HCV replicon (NS3/4A V170A)
# Experiment: not given
# Settings: fold change vs WT, mutant HCV replicon; cited from earlier work
row,SMILES,V170A FC (replicon)
1,"CC(C)(C)NC(=O)N[C@H](C(=O)N1C[C@H]2[C@@H]([C@H]1C(=O)NC(CC1CCC1)C(=O)C(N)=O)C2(C)C)C(C)(C)C (stereo partly shown) [Boceprevir, boceprevir]",5.8

# Same assay, conditions: mutant HCV replicon with luciferase readout; cited from earlier work
row,SMILES,IC50 [µM]
1,"CC(C)(C)NC(=O)N[C@H](C(=O)N1C[C@H]2[C@@H]([C@H]1C(=O)NC(CC1CCC1)C(=O)C(N)=O)C2(C)C)C(C)(C)C (stereo partly shown) [Boceprevir, boceprevir]",1.55

# Biological target: T1, HCV NS3/4A (wild-type) (Hepatitis C virus genotype 1b, UniProt O92972)
# T1 construct: The NS3/4A construct represented the individual NS3 proteinase domain N-terminally fused with an NS4A co-factor; 6xHis; purchased AnaSpec (Fremont, CA)
# Experiment: NS3/4A activity assay with FRET peptide substrate, wild-type enzyme
# Type: biochemical, HCV genotype 1b, strain HC-J4
# Settings: Table S1 100-1000; wild-type NS3/4A, FRET peptide substrate; read-out: NS3/4A IC50 range class 100-1000
# Excerpt: Reagents were purchased from Sigma unless indicated otherwise. The FRET substrate Ac-DE-D(Edans)-EE-Abu-ψ-[COO]-AS-K(Dabsyl)-NH2, purified recombinant wild-type NS3/4A from HCV genotype 1b, strain HC-J4, and the mutants with the V36M, R155K, A156T, D168A and V170A resistance mutations were from AnaSpec (Fremont, CA). The NS3/4A construct represented the individual NS3 proteinase domain N-terminally fused with an NS4A co-factor and tagged with a 6xHis tag. NS3/4A was in active form and the pre-activation by pep-4A or pep4AK was not necessary. Pyroglutamic acid-Arg-Thr-Lys-Arg-7-amino-4-methylcoumarin was from Peptides International (Louisville, KY). West Nile virus NS2B-NS3 proteinase (strain NY99) was expressed, purified and refolded to restore its functional activity as described earlier. The pET15b-Den2-CF40-Gly-NS3pro 185 plasmid encoding the Dengue virus type 2 NS2B-NS3 protease was a kind gift of Dr. Subhash Vasudevan (Program in Emerging Infectious Diseases, DUKE-NUS Graduate Medical School, Singapore). DV NS2B-NS3 proteinase was expressed purified and refolded to restore its functional activity as described previously, [70]. The expression of the soluble C-terminally truncated human furin construct in Sf9 insect cells (an ovarian cell line from fall armyworm Spodoptera frugiperda; Invitrogen, Carlsbad, CA) infected with the recombinant baculovirus and purification of soluble furin from the medium were described earlier. Original human hepatocarcinoma Huh7 cells were obtained from ATCC (Manassas, VA).
# The NS3/4A activity assay was performed at 37°C in triplicate in wells of a 96-well plate in 0.2 ml 50 mM HEPES, pH 7.5, containing 100 mM NaCl, 10 mM DTT, 20% glycerol, the Ac-DE-D(Edans)-EE-Abu-ψ-[COO]-AS-K(Dabsyl)-NH2 substrate (10 µM) and the NS3/4A enzyme (10 nM). Reaction velocity was monitored continuously at λex = 355 nm and λem = 500 nm for 10 min using a Spectramax Gemini EM fluorescence spectrophotometer (Molecular Devices, Sunnyvale, CA) and the initial rate of reaction v was recorded for each reaction. There was no significant additional absorption by compounds 1–8 we identified, which might interfere with NS3/4A assay. Compound stock solutions (10 mM) were made in 100% DMSO. Stocks were then diluted using the assay buffer. As a result, the final DMSO concentration was always below 1% in the assay reactions.
# To measure the inhibitory potency of the compounds, their increasing concentrations were pre-incubated with the individual proteinases in the corresponding buffer for 30 min at ambient temperature. At least, 7–9 different concentrations were used for each inhibitor. The residual activity of the enzymes was then measured as above. The IC50 values of the inhibitory compounds were calculated by determining the concentrations of the compounds needed to inhibit 50% of the enzyme activity against the peptide substrate. GraphPad Prism was used as fitting software.
row,SMILES,IC50 [µM]
1,O=[N+]([O-])c1cc([N+](=O)[O-])c2ccccc2c1NS(=O)(=O)c1ccc(Cl)c(Cl)c1Cl [Compound 53],100 to 1000
2,S=c1[nH]n2c(COc3ccc(OCc4nnc5sc(=S)[nH]n45)c(Cl)c3)nnc2s1 [Compound 59],100 to 1000
3,CC(CNc1nc(Nc2ccc(Cl)c(Cl)c2)nc(C(Cl)(Cl)Cl)n1)N(C)C (stereo not shown) [Compound 49],100 to 1000
4,Clc1nc2nc3n(c2nc1Cl)CCC3 [Compound 46],100 to 1000
5,FC(F)(F)C(F)(F)c1nc2nc(Cl)c(Cl)nc2[nH]1 [Compound 45],100 to 1000
6,O=C(Nc1ccc(Br)cc1)C(=O)C(C(=O)c1ccc(Cl)c(Cl)c1)C1OC(=O)c2ccccc21 (stereo not shown) [Compound 55],100 to 1000
7,NC(=S)/N=C(\c1nc2ccc(Cl)cc2[nH]c1=O)C(O)c1ccccc1Cl (stereo not shown) [Compound 50],100 to 1000
8,Cn1ncc2c(Nc3ccc(O)cc3)nc(Cl)nc21 [Compound 42],100 to 1000
9,CC(=O)Nc1ccc(NC(=O)c2c(Cl)c(Cl)c(Cl)c(Cl)c2-c2nc3ccccc3[nH]2)cc1 [Compound 57],100 to 1000
10,Cc1cc(S(=O)(=O)Nc2nc3ccsc3c(=O)n2Cc2ccccc2)c(S)cc1Cl [Compound 60],100 to 1000
11,FC(F)(F)C1=N/C(=C2\N=C(C(F)(F)F)N=C2Cl)C(Cl)=N1 [Compound 48],100 to 1000
12,Cc1cccc(C(C)C)c1NC(=O)C(=O)CC(=O)c1sc(Nc2ccccc2Cl)nc1C [Compound 56],100 to 1000
13,CC(C)(CCC#N)c1nc2sc(C(C)(C)CCC#N)nc2s1 [Compound 43],100 to 1000
14,CN(C)CCCNc1nc(-c2cccc(C(Cl)(Cl)Cl)c2)nc(C(Cl)(Cl)Cl)n1 [Compound 44],100 to 1000
15,O=C(CCc1nnc2s/c(=C\c3ccccc3[N+](=O)[O-])c(=O)n12)Nc1cc(Cl)c(Cl)cc1Cl [Compound 54],100 to 1000
16,O=S(=O)(Nc1c(Cl)c(Cl)c(Cl)c(Cl)c1NS(=O)(=O)c1ccccc1)c1ccccc1 [Compound 52],100 to 1000
17,OCCOCn1nc(-c2ccccc2)nc1-c1cnccn1 [Compound 51],100 to 1000
18,CSc1nc2nc(Cl)c(Cl)nc2[nH]1 [Compound 47],100 to 1000
19,COc1ccc(OC)c(NC(=O)c2c(Cl)c(Cl)c(Cl)c(Cl)c2-c2nc3ccccc3[nH]2)c1 [Compound 58],100 to 1000

# Same assay, conditions: Table S1; wild-type NS3/4A, FRET peptide substrate; read-out: NS3/4A IC50 range class 10 -100
row,SMILES,IC50 [µM]
1,C(=C\c1ccccc1)/Cn1nc(-c2ccccc2)nc1-c1cnccn1 [Compound 32],10 to 100
2,Cc1cc(S(=O)(=O)Nc2nc3cc(-c4ccc(Cl)cc4)sc3c(=O)n2N)c(S)cc1Cl [Compound 33],10 to 100
3,O=C(Nc1ccc(Cl)c(Cl)c1)C1C(=O)C(=O)N(c2ccc(Cl)c(Cl)c2)C1=O (stereo not shown) [Compound 24],10 to 100
4,O=C(CNC(=O)Nc1ccc(Cl)c(Cl)c1)NNC(=O)Nc1ccc(F)c(Cl)c1 [Compound 23],10 to 100
5,Brc1ccc2c(ccc3c2nnc2ncnn23)c1 [Compound 30],10 to 100
6,O=S(=O)(Nc1c(Cl)c(Cl)c(NS(=O)(=O)c2ccccc2)c(Cl)c1Cl)c1ccccc1 [Compound 38],10 to 100
7,OCC(O)C(O)C(O)c1nn(-c2ccccc2)c2nc3cc(Cl)c(Cl)cc3nc12 (stereo not shown) [Compound 31],10 to 100
8,Cc1nn(C(N)=S)c(C)c1N=Nc1cccc(Cl)c1Cl [Compound 28],10 to 100
9,O=C(CCCC(=O)N/N=C/c1ccc(Cl)cc1Cl)N/N=C/c1ccc(Cl)cc1Cl [Compound 17],10 to 100
10,O=S(=O)(Nc1cc(Cl)c(Cl)cc1N=Cc1ccc(N(CCCl)CCCl)cc1F)c1ccccc1 [Compound 36],10 to 100
11,O=C1CS(=O)(=O)CN1c1ccc(Cl)c(Cl)c1 [Compound 25],10 to 100
12,Oc1ccc(C=NCCN=Cc2ccc(O)cc2O)c(O)c1.[Ni] [Compound 14],10 to 100
13,O=C1C=C(Nc2ccc(Cl)cc2Cl)C(=O)C=C1Nc1ccc(Cl)cc1Cl [Compound 15],10 to 100
14,O=C1c2cc(Cl)ccc2-c2ccc(N=Cc3ccc(Cl)c(Cl)c3)cc21 [Compound 16],10 to 100
15,O=C(N/N=C\c1cc(Br)cc(Br)c1O)N/N=C/c1cc(Br)cc(Br)c1O [Compound 20],10 to 100
16,Clc1ccc(Nc2nc(SCc3ccccc3)nc3n[nH]c(Cc4nn[nH]n4)c23)cc1 [Compound 40],10 to 100
17,Cc1c(N=Nc2cccc(Cl)c2Cl)c(-c2ccccc2)nn1C(=S)S [Compound 27],10 to 100
18,Clc1ccc(OCc2nn3c(CCCCc4nnc5sc(COc6ccc(Cl)cc6Cl)nn45)nnc3s2)c(Cl)c1 [Compound 35],10 to 100
19,FC(F)(F)c1cccc(-c2nc3nc(Cl)c(Cl)nc3[nH]2)c1 [Compound 18],10 to 100
20,Cc1nn(C(=S)S)c(C)c1N=Nc1cccc(Cl)c1Cl [Compound 26],10 to 100
21,CC(C)N(C(=O)CSc1c(Cl)c(Cl)c(Cl)c(Cl)c1Cl)C(C)C [Compound 19],10 to 100
22,Cn1ncc2c(Nc3cc(Cl)ccc3Cl)ncnc21 [Compound 12],10 to 100
23,O=C(O)c1c(Br)c(Br)c(Br)c(Br)c1C(=O)Nc1cc([N+](=O)[O-])ccc1O [Compound 22],10 to 100
24,O=C(Nc1ccc(Cl)c(Cl)c1)c1ccc(C(=O)Nc2ccc(Cl)c(Cl)c2)cc1 [Compound 21],10 to 100
25,O=C(Nc1ccc(Cl)c(Cl)c1)C(=O)C(C(=O)c1ccccc1F)C1OC(=O)c2ccccc21 (stereo not shown) [Compound 39],10 to 100
26,Oc1c(Br)cc(CN(Cc2cc(Br)c(O)c(Br)c2)C2CCCCC2)cc1Br [Compound 13],10 to 100
27,O=[N+]([O-])c1ccc(O)c(C=Nc2cc(Cl)c(Cl)cc2NS(=O)(=O)c2ccccc2)c1 [Compound 37],10 to 100
28,CSC(=S)n1nc(C)c(N=Nc2cccc(Cl)c2Cl)c1C [Compound 29],10 to 100
29,Sc1ccccc1Nc1nc(SCc2ccccc2)nc2n[nH]c(Cc3nc4ccccc4s3)c12 [Compound 34],10 to 100

# Same assay, conditions: wild-type NS3/4A 10 nM, Ac-DE-D(Edans)-EE-Abu-ψ-[COO]-AS-K(Dabsyl)-NH2 10 µM, 30 min pre-incubation; read-out: NS3/4A IC50
row,SMILES,IC50 [µM]
1,O=C(c1ccco1)c1c(C(F)(F)F)n([O-])c2cc(Cl)c(Cl)cc2[n+]1=O [Compound 11],6.5
2,S=c1[nH]nc(CCCCc2n[nH]c(=S)n2/N=C/c2ccc(Cl)cc2Cl)n1/N=C/c1ccc(Cl)cc1Cl [Compound 10],5.25
3,FC(F)(F)c1nc2nc(Cl)c(Cl)nc2s1 [Compound 9],4.5

# System: HCV replicon (WT NS3/4A)
# Experiment: not given
# Settings: HCV replicon with luciferase readout; cited from earlier work
row,SMILES,IC50 [µM]
1,"CC(C)(C)NC(=O)N[C@H](C(=O)N1C[C@H]2[C@@H]([C@H]1C(=O)NC(CC1CCC1)C(=O)C(N)=O)C2(C)C)C(C)(C)C (stereo partly shown) [Boceprevir, boceprevir]",0.148

# System: HCV replicon (NS3/4A A156T)
# Experiment: not given
# Settings: mutant HCV replicon with luciferase readout; cited from earlier work
row,SMILES,IC50 [µM]
1,"CC(C)(C)NC(=O)N[C@H](C(=O)N1C[C@H]2[C@@H]([C@H]1C(=O)NC(CC1CCC1)C(=O)C(N)=O)C2(C)C)C(C)(C)C (stereo partly shown) [Boceprevir, boceprevir]",7.23
